{
  "source": "patent US20240199626A1",
  "about": "“COMPOUNDS WITH IMPROVED CARDIAC SAFETY FOR THE TREATMENT OF CANCER AND NEURODEGENERATIVE DISORDERS” (priority 2021, published 2024)",
  "key": {"hiPSC-CMs": {"tested_on": "hiPSC-CMs", "test": "Cardiotoxicity assay in hiPSC-CMs (voltage transients, arrhythmia, contractility)", "experimental": "iPSC-CMs: Human fibroblasts were reprogrammed to induced pluripotent stem cells (iPSCs) using Sendai viral vectors. All protocols were approved by the Stanford University Institutional Review Board. The obtained hiPSC clones were cultured in E8 cell culture media (Life Technologies) in plates coated growth factor-reduced Matrigel (Corning) until at least passage 20 before differentiation. hiPSC cells were differentiated into cardiomyocytes (CMs) utilizing a chemically defined cardiomyocyte differentiation protocol^55 and fatty acid rich maturation protocol.^56\nhiPSC-CMs were plated on Matrigel coated 384-well plates at 20,000 cells per well (Greiner μClear) in 50 μl cardiomyocyte media (RMPI, B27) supplemented with 10% knock-out replacement serum. The subsequent day an additional 50 μl of media was added and cells were grown for a minimum of 5 days prior to analysis. Action potential kinetics and contractility was measured on the same cells sequentially. First, action potential kinetics were recorded using the protocol as established by Mckeithan et al.^58 Briefly, the cells were washed 5 times with FluoroBrite, loaded with VF2.1.CI dye for 50 min at 37° C., and washed again 5 times with FluoroBrite. Voltage time series were acquired at a frequency of 33 Hz for a duration of 10 s on the IC200 Kinetic Imaging Platform (Vala Sciences). […] The resulting recordings were subsequently analyzed using Vala Sciences and custom software, action potential kinetics, action potential durations and rates,^58 or contractile activity parameters (peak divergence, area under the curve) were used as measures of cardiotoxicity.^59"}, "HEK cells": {"tested_on": "HEK cells", "test": "HEK cell growth inhibition"}, "[1]": {"test": "Serum cardiac troponin levels in treated mice", "details": "30 mg/kg daily by oral gavage; indication of cardiac damage"}, "K-562 cells": {"tested_on": "K-562 cells", "test": "Cell viability / growth inhibition (AlamarBlue), K-562", "type": "cell-based", "details": "Homo sapiens", "experimental": "(§1) K562 and K562-T315I: The Leukemia cell lines K562 were purchased and maintained as recommended by ATCC (Manassas, VA, USA). Briefly, K562 cells were cultured in suspension in RPMI1640 (ThermoFisher Scientific, USA) supplemented with 10% fetal bovine serum and Pen/Strep/L-Glutamine. […] Briefly, one million K562 cells were seeded in 6-well plates and transfected with Lipofectamine 2000 and 1 μg of CRISPR/Cas9 vector (pSpCas9(BB)-2A-GFP) incorporating the guide sequence ([…]), and Lipofectamine RNAiMax and 4 μg of ssDNA donors (1ug of each donor, Supplementary Table 1) for each well of a 6-well plate.\n(§2) The effects of the compounds on cell viability were evaluated using the AlamarBlue assay using the NCI60 methodology.^57 Cells were harvested and plated in 384-well plates (Greiner μClear) at a concentration of 1250 cells/well in 40 μL, and incubated for 24 h at 37° C. The next day, test compounds were added to the cells as a 2×40μL solution, and incubated for 48 h at 37° C."}, "[2]": {"tested_on": "K-562-T315I cells (K-562 cells expressing BCR-ABL^T315I)", "test": "Cell viability / growth inhibition (AlamarBlue), K-562-T315I", "type": "cell-based", "details": "Homo sapiens, K562, read-out: Cell Inhibition IC50 K-562-T315I", "experimental": "as §1, §2"}, "[3]": {"details": "K562, Table 5, ± SD, read-out: Cell Inhibition IC50 K562"}},
  "note": "pIC50: −log10 of the molar value. Like-named read-outs stand apart in the source and are kept apart here.",
  "data": [
    {"smiles": "Cc1nccc(Nc2ncc(C(=O)Nc3c(C)cccc3Cl)s2)n1", "note": "[Compound 3b, N-(2-chloro-6-methylphenyl)-2-((2-methylpyrimidin-4-yl)amino) thiazole-5-carboxamide]", "values": [
      {"measurement": "Cardiotoxicity (overall maximum toxic dose)", "setting": "hiPSC-CMs; Table 1", "value": ">10", "unit": "µM"}
    ]},
    {"smiles": "Cc1ccc(C(=O)N2CCN(C)CC2)cc1C#Cc1cnc2cccnn12", "note": "[Compound 10a, (3-(imidazo[1,2-b]pyridazin-3-ylethynyl)-4-methylphenyl)(4-methylpiperazin-1-yl)methanone]", "values": [
      {"measurement": "Cardiotoxicity (overall maximum toxic dose)", "setting": "hiPSC-CMs; Table 3", "value": ">10", "unit": "µM"}
    ]},
    {"smiles": "Cc1ccc(C(=O)Nc2ccc(CN3CCN(C)CC3)c(C(F)(F)F)c2)cc1C#Cc1cnc2cccnn12", "note": "[Ponatinib]", "values": [
      {"measurement": "effect on cardiomyocyte contractility (peak contraction amplitude)", "setting": "hiPSC-CMs; FIGS. 3D, 3E, hiPSC-CMs from two healthy donors", "value": "potently suppresses cardiomyocyte contractility"},
      {"measurement": "Cardiotoxicity (overall maximum toxic dose)", "setting": "hiPSC-CMs; Table 5", "value": 0.47, "unit": "µM"},
      {"measurement": "inhibition of growth of healthy HEK cells at", "setting": "HEK cells", "value": 1.1, "unit": "µM"},
      {"measurement": "serum cardiac troponin levels", "setting": "[1]", "value": "increased troponin levels"},
      {"measurement": "pIC50", "setting": "K-562 cells; K562, read-out: Cell Inhibition IC50 K562", "value": 9.30}
    ]},
    {"smiles": "Cc1ccc(C(=O)Nc2ccc(CN3CCN(C)CC3)c(C(F)(F)F)c2)cc1", "note": "[Compound 21a, 4-methyl-N-(4-((4-methylpiperazin-1-yl)methyl)-3-(trifluoromethyl)phenyl)benzamide]", "values": [
      {"measurement": "concentration at which cardiotoxicity was observed / cardiac-safe up to", "setting": "hiPSC-CMs", "value": 1450, "unit": "nM"},
      {"measurement": "Cardiotoxicity (overall maximum toxic dose)", "setting": "hiPSC-CMs; Table 4", "value": 1.45, "unit": "µM"}
    ]},
    {"smiles": "C#Cc1cc(C(=O)Nc2cc(-n3cnc(C)c3)cc(C(F)(F)F)c2)ccc1C", "note": "[Compound 26, 3-ethynyl-4-methyl-N-(3-(4-methyl-1H-imidazol-1-yl)-5-(trifluoromethyl)phenyl)benzamide]", "values": [
      {"measurement": "Cardiotoxicity (overall maximum toxic dose)", "setting": "hiPSC-CMs; Table 4", "value": ">10", "unit": "µM"}
    ]},
    {"smiles": "C#Cc1cc(C(=O)Nc2ccc(CN3CCN(C)CC3)c(C(F)(F)F)c2)ccc1OC", "note": "[Compound 29, 3-ethynyl-4-methoxy-N-(4-((4-methylpiperazin-1-yl)methyl)-3-(trifluoromethyl)phenyl)benzamide]", "values": [
      {"measurement": "concentration at which cardiotoxicity was observed / cardiac-safe up to", "setting": "hiPSC-CMs", "value": 1340, "unit": "nM"},
      {"measurement": "Cardiotoxicity (overall maximum toxic dose)", "setting": "hiPSC-CMs; Table 4", "value": 1.34, "unit": "µM"}
    ]},
    {"smiles": "Cc1nc(Nc2ncc(C(=O)Nc3c(C)cccc3Cl)s2)cc(N2CCN(CCO)CC2)n1", "note": "[Dasatinib]", "values": [
      {"measurement": "Cardiotoxicity (overall maximum toxic dose)", "setting": "hiPSC-CMs; Table 5", "value": ">10", "unit": "µM"},
      {"measurement": "pIC50", "setting": "K-562 cells; [3]", "value": 9.40}
    ]},
    {"smiles": "C#Cc1cc(C(=O)Nc2ccc(CN3CCN(C)CC3)c(C(F)(F)F)c2)ccc1C", "note": "[Compound 19, 3-ethynyl-4-methyl-N-(4-((4-methylpiperazin-1-yl)methyl)-3-(trifluoromethyl)phenyl) benzamide]", "values": [
      {"measurement": "Cardiotoxicity (overall maximum toxic dose)", "setting": "hiPSC-CMs; Table 4", "value": 1.13, "unit": "µM"}
    ]},
    {"smiles": "O=C(Nc1ccc(OC(F)(F)Cl)cc1)c1cnc(N2CC[C@@H](O)C2)c(-c2ccn[nH]2)c1", "note": "[Asciminib]", "values": [
      {"measurement": "Cardiotoxicity (overall maximum toxic dose)", "setting": "hiPSC-CMs; Table 5", "value": 4.81, "unit": "µM"}
    ]},
    {"smiles": "Cc1cn(-c2cc(NC(=O)c3ccc(C)c(Nc4nccc(-c5cccnc5)n4)c3)cc(C(F)(F)F)c2)cn1", "note": "[Nilotinib]", "values": [
      {"measurement": "Cardiotoxicity (overall maximum toxic dose)", "setting": "hiPSC-CMs; Table 5", "value": 1.12, "unit": "µM"},
      {"measurement": "pIC50", "setting": "K-562 cells; [3]", "value": 7.59},
      {"measurement": "pIC50", "setting": "[2]", "value": "< 5.00"}
    ]}
  ]
}
